# Columns and labels:
# COS-7 cells = test: Autocrine assay: growth of cells cultured with NMU-25 (MTT, colony formation); assay type: cell-based; details: 0.3 to 15 μM, vs BSA control, 144 hours
# Experimental: To confirm the autocrine function of NMU in the growth of mammalian cells, COS-7 cells were cultured in medium containing the active form of a 25-amino-acid polypeptide of NMU (NMU-25; Sigma-Aldrich Co.) at final concentrations of 0.3 to 15 μM. The same concentrations of BSA served as controls. The peptides/proteins were added every 48 hours for 6 days. At the 144-hours time point, cell proliferation was evaluated by MTT and colony-formation assays.
# GHSR1b/NTSR1 [1] = molecular target: T1, GHSR1b/NTSR1 (Homo sapiens, UniProt P30989+Q92847, A200T); test: Immunocytochemistry for internalized receptors, transfected COS-7 cells; assay type: cell-based; details: COS-7 cells with introduced receptors, 10 μM, time-dependent
# T1 construct: expressed in transfected cells; host or cells: COS-7
# T1 sequence (Q92847 1-289 isoform Q92847-2, stated change not applied): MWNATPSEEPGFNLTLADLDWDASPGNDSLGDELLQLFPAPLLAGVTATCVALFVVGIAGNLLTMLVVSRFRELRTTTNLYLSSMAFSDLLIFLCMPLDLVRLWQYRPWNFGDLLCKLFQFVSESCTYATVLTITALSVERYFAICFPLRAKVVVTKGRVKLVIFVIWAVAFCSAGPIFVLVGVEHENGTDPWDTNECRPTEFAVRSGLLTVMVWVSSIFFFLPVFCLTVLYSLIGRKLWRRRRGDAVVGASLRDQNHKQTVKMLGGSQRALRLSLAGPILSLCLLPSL
# T1 sequence (P30989 whole entry A200T): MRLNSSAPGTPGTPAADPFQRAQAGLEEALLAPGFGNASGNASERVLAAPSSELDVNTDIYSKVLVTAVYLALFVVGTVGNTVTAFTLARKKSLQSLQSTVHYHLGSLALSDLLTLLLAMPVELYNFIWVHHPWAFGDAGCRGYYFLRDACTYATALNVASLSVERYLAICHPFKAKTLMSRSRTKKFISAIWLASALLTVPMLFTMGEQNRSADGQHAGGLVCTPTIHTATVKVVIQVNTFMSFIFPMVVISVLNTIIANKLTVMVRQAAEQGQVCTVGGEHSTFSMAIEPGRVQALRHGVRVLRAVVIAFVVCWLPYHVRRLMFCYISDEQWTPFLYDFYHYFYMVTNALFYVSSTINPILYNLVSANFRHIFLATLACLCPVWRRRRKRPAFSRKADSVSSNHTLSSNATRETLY
# Experimental: To investigate the association of NMU-25 with its candidate receptors, GHSR1b and NTSR1, the following experiments were performed. The entire coding region of each of the receptor genes was amplified by RT-PCR using primers: […]
# The products were digested with EcoRI and BamHI and cloned into appropriate sites of p3XFLAG-CMV10 vector (Sigma-Aldrich Co.). COS-7 cells were transfected with FLAG-tagged GHSR1b or NTSR1 expression plasmid using FuGENE 6 Transfection Reagent as described above. The cells subjected to internalization assays were exposed to NMU-25 (10 μM) for 120 min. The cells were then fixed with 4% paraformaldehyde solution for 15 min at 37° C., and washed with PBS(−). Specimens were incubated in PBS(−) containing 0.1% Triton X-100 for 10 min and subsequently washed with PBS(−). Prior to primary antibody reaction, the cells were incubated in CAS-BLOCK (ZYMED Laboratories Inc.) for 10 min to block non-specific antibody binding. Then, the cells were incubated with both rabbit polyclonal and anti-GHSR antibody and goat polyclonal anti-NTSR1 antibody. The antibodies were stained with both anti-rabbit secondary antibody conjugated to Alexa Fluor 488 (Molecular Probes) and anti-goat secondary antibody conjugated to Alexa Fluor 594 (Molecular Probes). […] Images were viewed and assessed using confocal microscopy (TCS SP2 AOBS; Leica Microsystems).
# NCI-H358 cells = test: Measurement of cAMP levels (cAMP EIA); assay type: cell-based, human; details: expressing either of the receptors, 3 to 50 μM
# Experimental: (§1) Trypsinized LC319, REF-LC-AI, NCI-H358 and SK-MED-1 cells were seeded onto a 96-well microtiter plate (5.0×10^4 cells) and cultured in appropriate medium supplemented with 10% FCS for 24 hours, and then the medium was changed to serum free/1 mM IBMX (isobutylmethylxanthine) 20 min prior to the assay. Next, the cells were incubated with individual concentrations of peptides (NMU-25, GHRL, or NTS) for 20 min and cAMP levels of the cells were measured using cAMP EIA System (GE Healthcare Bio-sciences).
# RERF-LC-AI cells = test: Measurement of cAMP levels (cAMP EIA); assay type: cell-based, human; details: both receptors at low levels, 3 to 50 μM
# Experimental: as §1
# SK-MES-1 cells = test: Measurement of cAMP levels (cAMP EIA); assay type: cell-based, human; details: expressing either of the receptors, 3 to 50 μM
# Experimental: as §1
# LC319 cells [2] = test: Measurement of cAMP levels (cAMP EIA); assay type: cell-based, human; details: for cAMP production: final concentrations of 3 to 100 μM
# Experimental: as §1
# FOXM1 = test: Induction of FOXM1 expression by NMU ligand-receptor signaling in LC319 cells; assay type: cell-based, human; details: 25 μM, vs BSA control
# Experimental: Total RNA was extracted from cultured cells and clinical tissues using Trizol reagent (Life Technologies, Inc.) according to the manufacturer's protocol. Extracted RNAs and normal human tissue poly(A) RNAs were treated with DNaseI (Nippon Gene) and were reverse-transcribed using oligo(dT)20 primer and SuperSpcript II reverse transcriptase (Invitrogen). Semiquantitative RT-PCR experiments were carried out with the following synthesized gene-specific primers and beta-actin (ACTB)-specific primers as internal control: […]
# GHSR1b/NTSR1 [3] = molecular target: T2, GHSR1b/NTSR1 (Homo sapiens, UniProt P30989+Q92847); test: Immunocytochemistry for internalized receptors, endogenous receptors in LC319 cells; assay type: cell-based
# T2 construct: endogenous in cells; host or cells: LC319
# T2 sequence (Q92847 1-289 isoform Q92847-2): as the sequence (Q92847 1-289 isoform Q92847-2, stated change not applied) above
# T2 sequence (P30989 whole entry): as the sequence (P30989 whole entry A200T) above, with T200A counted along it
# [4] = molecular target: T3, endogenous GHSR1b and NTSR1 on PC14 cells (Homo sapiens, UniProt P30989+Q92847); test: Ligand-receptor binding assay with Cy5-labeled NMU-25; details: 10-fold excess unlabeled NMU-25
# T3 construct: endogenous in cells; host or cells: PC14
# T3 sequence (Q92847 1-289 isoform Q92847-2): as the sequence (Q92847 1-289 isoform Q92847-2, stated change not applied) above
# T3 sequence (P30989 whole entry): as the sequence (P30989 whole entry A200T) above, with T200A counted along it
# Experimental: (§2) To confirm the binding of NMU-25 to endogenous candidate receptors on the NSCLC cell, a receptor-ligand binding assay using LC319 and PC14 cells that express GHSR1b and NTSR1, but not NMU1R and NMU2R were performed. Specifically, trypsinized cells were seeded onto a 96-well (with black wall and clear bottom) microtiter plates 24 hours prior to the assay. The medium was removed and the cells were incubated with CyS-labeled NMU-25 peptide (1 μM) with or without the addition of 10-fold excess unlabeled NMU-25 peptide as the competitor. The plate was incubated in dark for 24 hours at 37° C. and then scanned on 8200 Cellular Detection System (Applied Biosystems) to quantify the amount of CyS fluorescence probe bound to the surface of each cell. (15) Immunocytochemistry for Internalized Receptors
# [5] = molecular target: T4, endogenous GHSR1b and NTSR1 on LC319 cells (Homo sapiens, UniProt P30989+Q92847); test: as above; details: 10-fold excess unlabeled NMU-25
# T4 construct: endogenous in cells; host or cells: LC319
# T4 sequence (Q92847 1-289 isoform Q92847-2): as the sequence (Q92847 1-289 isoform Q92847-2, stated change not applied) above
# T4 sequence (P30989 whole entry): as the sequence (P30989 whole entry A200T) above, with T200A counted along it
# Experimental: as §2
# NMU1R-expressing cells = molecular target: T5, NMU1R-expressing cells (Homo sapiens, UniProt Q9HB89); details: cited from earlier work
# T5 construct: host or cells: NMU1R-expressing cells
# T5 sequence (Q9HB89 1-426): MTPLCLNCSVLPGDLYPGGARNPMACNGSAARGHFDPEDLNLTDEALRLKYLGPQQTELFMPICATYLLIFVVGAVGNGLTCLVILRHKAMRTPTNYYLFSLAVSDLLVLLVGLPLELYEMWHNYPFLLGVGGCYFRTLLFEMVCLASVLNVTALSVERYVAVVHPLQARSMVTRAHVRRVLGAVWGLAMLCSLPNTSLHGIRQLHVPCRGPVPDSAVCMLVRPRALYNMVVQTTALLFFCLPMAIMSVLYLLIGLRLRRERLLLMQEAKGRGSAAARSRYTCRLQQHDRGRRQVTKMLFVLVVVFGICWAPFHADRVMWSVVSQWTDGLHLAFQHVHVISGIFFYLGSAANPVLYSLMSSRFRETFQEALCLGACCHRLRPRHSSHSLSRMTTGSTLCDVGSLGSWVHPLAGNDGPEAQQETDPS
# LC319 cells [6] = test: Intracellular Ca^2+ mobilization assay (FLIPR); assay type: cell-based, human
# Experimental: Trypsinized LC319 cells were seeded onto poly-D-lysine coated 384-well black-wall, clear-bottom microtiter plate (1.0×10^4 cells/ml) 24 hours prior to the assay. The cells were loaded for 1 hour with 4 μM Fluo-3-AM fluorescent indicator dye in assay buffer (Hank's balanced salt solution, 20 mM HEPES, 2.5 mM probenecid), washed three times with assay buffer, and then incubated for 10 min at room temperature before detection on fluorometric imaging plate reader (FLIPR; Molecular Devices). Fluorescence data of Ca^2+ release were collected in real-time at 1 sec intervals for the first 65 sec and at 3 sec intervals for additional 300 sec after individual concentrations of peptide (NMU-25, […], or NTS) treatment. Maximum change in fluorescence over baseline was measured to determine the response of the cells to the individual peptide stimulations.
# NSCLC cells = test: Competition of NMU-induced cAMP production; assay type: cell-based
Substance,cell growth (MTT assay) (COS-7 cells),cell growth (colony-formation assay) (COS-7 cells),subcellular distribution of GHSR1b and NTSR1 after stimulation (GHSR1b/NTSR1 [1]),intracellular cAMP production by NMU-25 (FIG. 3C) (NCI-H358 cells),intracellular cAMP production by NMU-25 (FIG. 3B) (RERF-LC-AI cells),intracellular cAMP production by NMU-25 (FIG. 3D) (SK-MES-1 cells),cAMP production (LC319 cells [2]),"intracellular cAMP production by NMU-25 (FIG. 3A) (LC319 cells [2]; high levels of both receptors, 3 to 50 μM)",expression of FOXM1 (FOXM1),subcellular distribution of GHSR1b and NTSR1 after stimulation (GHSR1b/NTSR1 [3]),binding activity of Cy5-labeled NMU-25 with unlabeled competitor [4],binding activity of Cy5-labeled NMU-25 with unlabeled competitor [5],displacement of 125I-labeled rat NMU-binding (NMU1R-expressing cells),intracellular Ca^2+ flux / mobilization (LC319 cells [6]),NMU-induced cAMP production (NSCLC cells)
NMU-25: active form of a 25-amino-acid polypeptide of NMU (Sigma-Aldrich Co.) (FRVDEEFQSPFASQSRGYFLFRPRN),enhanced cell growth in a dose-dependent manner,enhanced cell growth in a dose-dependent manner,co-internalized,did not show detectable cAMP production,not significant but low cAMP production,did not show detectable cAMP production,Enhancement of cAMP production,marked and reproducible cAMP accumulation,enhanced expression of FOXM1,induced co-internalization,inhibited,inhibited,–,–,–
"ghrelin (GSSFLSPEHQRVQQRKESKKPPAKLQPR) [GHRL, 28-amino-acid peptide, known ligand of GHSR]",–,–,–,–,–,–,did not enhance,–,–,–,–,–,did not displace,not the treatment with GHRL caused the mobilization response,competitively inhibited

# Source: US20090311685A1, “NMU-GHSR1b/NTSR1 oncogenic signaling pathway as a therapeutic target for lung cancer” (Oncotherapy Science, Inc, priority 2006, published 2009)
